Going from CCN(C)c1nc(N(C)CC)nc(N(C)CC)n1 to CN(C)CCN(Cc1ccc(C(C)(C)C)cc1)c1ccccc1, the logP rises from 3.9 to 5.34.

First: CCCCN(SN(C)C(=O)ON=C(C)SC)C(=O)c1ccccc1
Second: CSC(C)=NOC(=O)N(C)SN(C)C(=O)c1cccc(C(F)(F)F)c1
The logP of the first is higher: 3.4 for the first, 2.5 for the second.

First: CCCCC1OC(=O)c2cc(NC(C)=O)ccc21 (configuration not stated)
Second: O=C1OC(Cc2ccccc2)c2ccccc21 (configuration not stated)
The logP of the first is lower: 2.77 for the first, 3.12 for the second.

First: CCCCCCCCCC[n+]1ccc(C)c(C)c1.[I-]
Second: CCCCCC[n+]1ccc(C)c(C)c1.[I-]
The logP of the first is higher: 0.66 for the first, -1.51 for the second.

Compared with CN(C)c1ccc2c(c1)C(=O)OC2(C)C, CC(=O)c1cccc(N2C(N)=NC(N)=NC2(C)C)c1 is lower in logP: 2.42 for the first, -0.22 for the second.

First: CSC(C)=NOC(=O)N(C)SN(C)C(=O)c1c(Cl)cccc1Cl
Second: CCCCCCOC(=O)N(C)SN(C)C(=O)ON=C(C)SC
The logP of the first is lower: 2.6 for the first, 4.2 for the second.

Compared with CSCN1C(=O)CN=C(c2ccccc2)c2cc(Cl)ccc21, COCN1C(=O)CN=C(c2ccccc2)c2cc(N)ccc21 is lower in logP: 3.32 for the first, 1.32 for the second.

First: O=CN(Cc1ccccc1)c1ccccc1
Second: CN(C(=O)COc1ccccc1)c1ccccc1
The logP of the first is higher: 2.62 for the first, 2.25 for the second.

Going from CC(C)(C)c1cc(OC2OC(CO)C(O)C(O)C2O)cc(C(C)(C)C)c1 (configuration not stated) to CC(C)(C)c1cccc(OC2OC(CO)C(O)C(O)C2O)c1 (configuration not stated), the logP falls from 2.73 to 1.01.

Going from CC1NC(=Nc2ncc([N+](=O)[O-])s2)OC1(C)C (configuration not stated) to COCC(O)Cn1c([N+](=O)[O-])cnc1C (configuration not stated), the logP falls from 1.88 to 0.04.

Compared with FC1C(Cl)C(Cl)C(Cl)C(Cl)C1Cl (configuration not stated), ClC1C(Cl)C(Cl)C(Br)C(Cl)C1Cl (configuration not stated) is higher in logP: 3.19 for the first, 3.74 for the second.

First: FC(F)(F)c1nc2c(Cl)cc(Cl)cc2[nH]1
Second: COC(=O)C(C#N)=NNc1ccc(Cl)cc1C(F)(F)F
The logP of the first is lower: 3.49 for the first, 4.66 for the second.

First: O=c1[nH]nc(CSc2ccccc2)[nH]1
Second: c1ccc(Sc2cnn[nH]2)cc1
The logP of the first is lower: 1.46 for the first, 2.65 for the second.

Compared with N#Cc1cccc(N2C(=O)CCC2=O)c1, O=C1CCC(=O)N1c1cccc(F)c1 is higher in logP: 0.02 for the first, 0.38 for the second.

Compared with OCC1OC(Oc2ccc(I)cc2)C(O)C(O)C1O (configuration not stated), Cc1ccc(OC2OC(CO)C(O)C(O)C2O)cc1 (configuration not stated) is lower in logP: 0.75 for the first, -0.16 for the second.

Going from CON(C)C(=O)Nc1ccc(OCc2ccccc2)cc1 to CON(C)C(=O)Nc1ccc(OCCc2ccccc2)cc1, the logP rises from 3.11 to 4.5.

Going from ClC1C(Cl)C(Cl)C(Br)C(Br)C1Cl (configuration not stated) to COC1C(Cl)C(Cl)C(OC)C(Cl)C1Cl (configuration not stated), the logP falls from 3.88 to 3.15.

Going from CCCCN(CCCC)CCS(=O)(=O)c1cc(OC)c(OC)c(OC)c1 to CCCCN(C)CCS(=O)(=O)c1cc(OC)c(OC)c(OC)c1, the logP falls from 3.55 to 2.05.

First: O=[N+]([O-])C=Cc1ccccc1[N+](=O)[O-]
Second: COc1ccc(C=C[N+](=O)[O-])cc1
The logP of the first is lower: 1.8 for the first, 2.2 for the second.

Compared with COc1cc(C)c(Cc2cnc(N)nc2N)cc1OC, COc1ccc(Cc2cnc(N)nc2N)cc1OC is lower in logP: 1.23 for the first, 0.97 for the second.

First: CCCCCCCCOn1c(=O)[nH]c(C)c(Br)c1=O
Second: CCCOn1c(=O)c(Br)c(C)n(C)c1=O
The logP of the first is higher: 3.39 for the first, 0.72 for the second.

Compared with CCOC(=O)C(C#N)=NNc1cc(Cl)c(Cl)c(Cl)c1, CCOC(=O)C(C#N)=NNc1ccc([N+](=O)[O-])cc1[N+](=O)[O-] is lower in logP: 5.03 for the first, 4.14 for the second.

Compared with NNC(=O)c1ccc(Br)cc1, Cc1ccccc1C(=O)NN is lower in logP: 1.28 for the first, 0.22 for the second.

Compared with CCC(=O)c1ccc(OC(=O)NC)cc1, COc1ccc(OC(=O)CNC(=O)c2ccccc2)cc1 is higher in logP: 1.55 for the first, 2.28 for the second.

First: CC1(C)N=C(N)N=C(N)N1c1cccc(C#N)c1
Second: N#Cc1ccc2nccnc2c1
The logP of the first is lower: -0.24 for the first, 1.01 for the second.

First: COc1ccc(OC)c(NC2=NCCN2)c1
Second: COc1cc(OC)c(CC(C)N)c(OC)c1 (configuration not stated)
The logP of the first is lower: 0.97 for the first, 1.57 for the second.

Compared with O=C(c1ccncc1)c1ccccc1O, O=C(O)c1ccccc1Nc1cccc(O)c1 is higher in logP: 2.13 for the first, 3.49 for the second.

Going from C[N+](C)(C)Cc1ccncc1.[Br-] to C[N+](C)(C)Cc1cccc(C(N)=O)c1.[Br-], the logP rises from -3.95 to -2.8.

Going from CNC(=O)ON=C(C)C(C)(C)[N+](=O)[O-] to CCC(C)C(NC(C)=O)C(=O)NC (configuration not stated), the logP falls from 0.66 to 0.14.

Going from O=C(CNC(=O)c1ccccc1)Oc1cccc(F)c1 to O=C(O)C1c2ccccc2Cc2ccccc21, the logP rises from 2.58 to 2.78.

Going from O=NN(CCCl)C(=O)NC1CCCCC1O (configuration not stated) to O=NN(CCCl)C(=O)NC1CCSCC1, the logP rises from 1.75 to 2.07.

Going from O=S(=O)(Nc1cccc(Br)c1)C(F)(F)F to O=C(NCC(O)c1ccc([N+](=O)[O-])cc1)C(F)(F)F (configuration not stated), the logP falls from 3.82 to 1.46.

First: COc1cc(Cc2cnc(N)nc2N)ccc1N
Second: COc1ccc(Cc2cnc(N)nc2N)cc1Br
The logP of the first is lower: 0.49 for the first, 1.88 for the second.

Going from Clc1cc2ccccc2nn1 to NC(=O)CCn1nnc2ccccc21, the logP falls from 1.57 to 0.27.

First: CC(C)=CC1C(C(=O)OCc2cccc([N+](=O)[O-])c2)C1(C)C (configuration not stated)
Second: COP(=O)(OC)Oc1ccc([N+](=O)[O-])c(C)c1
The logP of the first is higher: 5.2 for the first, 1.69 for the second.

Going from CCCCCCCCCCOC(=O)N(C)SN(C)C(=O)ON=C(C)SC to CCCCCCNC(=O)NN, the logP falls from 6.2 to 0.46.

Going from Cc1ccccc1C(=N)c1ccccc1C to Clc1ccccc1-c1ccccc1Cl, the logP rises from 3.31 to 4.97.

Compared with CC(C)C1=Nc2cc(Cl)ccc2S(=O)(=O)N1, O=S1(=O)NC=Nc2cc(Cl)ccc21 is lower in logP: 2 for the first, 1.01 for the second.

COC(=O)C(C#N)=NNc1cc(C(F)(F)F)cc(C(F)(F)F)c1 and COC(=O)C(C#N)=NNc1ccc2c(c1)OC(F)(F)C(F)(F)O2 are within 0.2 log units of each other in logP: 5.02 for the first, 4.86 for the second.

Compared with CC(O)Cn1ccnc1[N+](=O)[O-] (configuration not stated), O=[N+]([O-])c1nccn1CCCOc1ccccc1 is higher in logP: -0.16 for the first, 2.38 for the second.

First: CN(C)N=[N+]([O-])c1ccccc1
Second: Cc1cccc(N=NN(C)C)c1
The logP of the first is lower: 1.8 for the first, 2.85 for the second.

CCOP(=O)(OCC)Oc1ccc(SC)cc1C and CCOP(=O)(OCC)Oc1ccc(SC)c(C)c1 are within 0.2 log units of each other in logP: 3.21 for the first, 3.28 for the second.

Going from S=c1[nH]cnc2[nH]cnc12 to CNC(=S)NCCSCc1nc[nH]c1C, the logP rises from 0.01 to 0.5.

Compared with O=C(O)CCSc1c[nH]c2ccccc12, NC(=O)CCCCn1nnc2ccccc21 is lower in logP: 2.15 for the first, 0.58 for the second.

Compared with CCC1C(=O)NC(=O)N(C)C1=O (configuration not stated), C=C(Br)CC1(C(C)CC)C(=O)NC(=O)N(C)C1=O (configuration not stated) is higher in logP: 0.15 for the first, 2.43 for the second.

First: CC(C)(C)c1nnc(N)o1
Second: CCSc1nnc(C(C)C)c(=O)n1N
The logP of the first is lower: 0.48 for the first, 1.52 for the second.

First: Clc1cc(Cl)c(-c2ccccc2)cc1Cl
Second: Nc1ccc2c(c1)C(c1ccccc1)=NCC(=O)N2
The logP of the first is higher: 5.81 for the first, 1 for the second.

CNc1cc(Cc2cnc(N)nc2N)cc(N(C)C)c1OC and COc1cc(Cc2cnc(N)nc2N)cc(OC)c1C(C)(C)O are within 0.2 log units of each other in logP: 1.56 for the first, 1.49 for the second.

Going from COC1=C(C)C(=O)c2ccccc2C1=O to O=C1C(O)=C(CC=C(Cl)Cl)C(=O)c2ccccc21, the logP rises from 2.14 to 3.1.

Going from Cn1nnnc1Sc1ccccc1 to Cn1cnc([N+](=O)[O-])c1S(=O)(=O)Oc1ccccc1, the logP falls from 1.63 to 1.08.

CC1C(C)N(N=O)C(C)C(C)N1N=O (configuration not stated) and CC1CN(C(=O)c2ccccc2)CC(C)N1N=O (configuration not stated) are within 0.2 log units of each other in logP: 0.91 for the first, 1.04 for the second.

Compared with CCC(C)NC(=O)C=C(C)c1ccc(Cl)cc1 (configuration not stated), CCC(C)NC(=O)C=Cc1ccc(Cl)cc1 (configuration not stated) is lower in logP: 3.92 for the first, 3.37 for the second.

Going from CN(C)N=Nc1ccc(NC(N)=O)cc1 to CN(Cc1ccccc1)N=Nc1ccc(C(N)=O)cc1, the logP rises from 1.25 to 2.76.

Compared with CC(C)CNC(=O)NN, CCCCNC(=O)NN is higher in logP: -0.84 for the first, -0.6 for the second.

First: COc1ccc(Cc2cnc(N)nc2N)cc1OCc1ccccc1
Second: COc1c(OCc2ccccc2)cc(Cc2cnc(N)nc2N)cc1OCc1ccccc1
The logP of the first is lower: 2.44 for the first, 3.89 for the second.

First: CCS(=O)(=O)c1cc(OC)c(OC)c(OC)c1
Second: COc1cc(Cc2cnc(N)nc2N)cc(OC)c1C(=O)CS(C)(=O)=O
The logP of the first is higher: 1.05 for the first, -0.31 for the second.

Going from CN(C)C(=O)c1ccsc1 to CN(C)C(=O)c1ccoc1, the logP falls from 0.55 to 0.24.

Going from CNP(=O)(OC)Oc1cccc(C(C)(C)C)c1 (configuration not stated) to CNP(=O)(OC)Oc1ccc(Cl)cc1 (configuration not stated), the logP falls from 2.65 to 1.85.

Compared with O=C(O)CCCCCCCN1C(=O)C=CC1=O, CCOC(=O)CCCN1C(=O)C=CC1=O is lower in logP: 1.99 for the first, 0.67 for the second.

Going from CN(N=O)C1CCCCC1 to O=NN(CCCl)C(=O)NC1C=CCCC1 (configuration not stated), the logP rises from 1.43 to 2.45.

First: Cc1ccc(NC(=O)CN2CCCCC2)cc1
Second: Cc1ccccc1NC(=O)CN1CCCCC1
The logP of the first is higher: 2.96 for the first, 2.26 for the second.

Compared with O=C1NC(=S)SC1=CC=Cc1ccc([N+](=O)[O-])o1, CN(C=O)c1ccc(S(=O)(=O)N(C)C)cc1 is lower in logP: 0.93 for the first, 0.4 for the second.

CN1C(=O)CN=C(c2ccccc2F)c2cc(I)ccc21 and O=C1CN=C(c2ccccc2Br)c2cc(Cl)ccc2N1 are within 0.2 log units of each other in logP: 3.14 for the first, 3.17 for the second.

Going from CCOC(=O)C(=Cc1ccccc1)C(=O)OCC to CC(=O)CNc1ccccc1C(N)=O, the logP falls from 3.13 to 0.61.

First: CCCC(=O)NC(=O)NC(=O)CCC
Second: CCC(=O)CC(=O)CC
The logP of the first is higher: 1.4 for the first, 1.12 for the second.

Going from O=C(Nc1n[nH]c(NC(=O)C(F)(F)F)n1)C(F)(F)F to NC1CC2CC1c1ccc(C(F)(F)F)cc12 (configuration not stated), the logP rises from 0.62 to 2.91.

First: CCOP(=S)(OCC)Oc1ccc(SC)c(Cl)c1
Second: CCOP(=O)(OCC)Oc1ccc(SC)c(Cl)c1
The logP of the first is higher: 5.06 for the first, 2.94 for the second.

Going from COc1cc(-n2[nH]c(C)cc2=O)nc(C)n1 to COc1cc(-n2nc(C)cc2OC)nc(C)n1, the logP rises from 0.72 to 1.54.

Going from CC1COCCN1N=O (configuration not stated) to Cc1ccccc1NC(=O)C1CNCCN1 (configuration not stated), the logP rises from -0.03 to 0.26.

First: O=C(NCCO)c1cccnc1
Second: NC(=O)c1cccs1
The logP of the first is lower: -0.11 for the first, 0.52 for the second.

Going from CN1C(C(=O)Nc2nccs2)C(=O)c2ccccc2S1(=O)=O (configuration not stated) to O=C1CN=C(c2ccccc2Cl)c2cc(Br)ccc2N1, the logP rises from 1.64 to 3.3.

First: O=NN(CCF)C(=O)NC1CCC(NC(=O)N(CCF)N=O)CC1 (configuration not stated)
Second: NC(=O)N(CCCN(N=O)C(N)=O)N=O
The logP of the first is higher: 1.34 for the first, -0.3 for the second.

Compared with ClC1=CC(Cl)C(Cl)C(Cl)C1 (configuration not stated), CN(C)C(=O)c1cc(N2CC2)c([N+](=O)[O-])cc1[N+](=O)[O-] is lower in logP: 3.72 for the first, 0.63 for the second.

Compared with COP(=O)(NCC(C)C)SC (configuration not stated), CN(C)C(=O)Cc1cccs1 is lower in logP: 0.97 for the first, 0.65 for the second.

Compared with CC1=Nc2ccc(Br)cc2S(=O)(=O)N1, Cc1nc(-c2ccccn2)no1 is lower in logP: 1.37 for the first, 0.79 for the second.

First: Cc1ccc(CN(C)N=Nc2ccc(C(=O)O)cc2)cc1
Second: N#Cc1cc[n+]([O-])cc1
The logP of the first is higher: 4.75 for the first, -0.94 for the second.

Source: the OPERA property sets (Mansouri et al. 2018)
